This note sets out measurements from US20060258683A1, “Para-sulfonyl substituted phenyl compounds as modulators of ppars” (priority 2003, published 2006).

What all share (assay type): cell-based
In assay [1] the target is T1, PPARα (Homo sapiens, UniProt Q07869).
T1 construct: expressed in transfected cells; host or cells: CV-1 cells
T1 sequence (Q07869 239-466 limits assumed): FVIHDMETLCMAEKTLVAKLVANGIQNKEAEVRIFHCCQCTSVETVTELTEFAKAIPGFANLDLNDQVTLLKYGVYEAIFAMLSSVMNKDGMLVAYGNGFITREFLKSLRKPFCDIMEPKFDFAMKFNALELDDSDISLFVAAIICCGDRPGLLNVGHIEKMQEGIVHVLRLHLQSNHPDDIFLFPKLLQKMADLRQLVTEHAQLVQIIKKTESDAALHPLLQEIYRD
Kind of assay: PPAR-alpha EC50, functional cell (transactivation) assay. An excerpt: (§1) The following transfection assay methods are provided by way of example only. Compounds may be screened for functional potency in transient transfection assays in CV-1 cells for their ability to activate the PPAR subtypes (transactivation assay). A previously established chimeric receptor system was utilized to allow comparison of the relative transcriptional activity of the receptor subtypes on the same target gene and to prevent endogenous receptor activation from complicating the interpretation of results. See, for example, Lehmann, J. M.; Moore, L. B.; Smith-Oliver, T. A; Wilkinson, W. O.; Willson, T. M.; Kliewer, S. A., An antidiabetic thiazolidinedione is a high affinity ligand for peroxisome proliferator-activated receptor γ(PPARγ), J. Biol. Chem., 1995, 270, 12953-6. The ligand binding domains for murine and human PPAR-alpha, PPAR-gamma, and PPAR-delta are each fused to the yeast transcription factor GAL4 DNA binding domain. CV-1 cells were transiently transfected with expression vectors for the respective PPAR chimera along with a reporter construct containing five copies of the GAL4 DNA binding site driving expression of secreted placental alkaline phosphatase (SPAP) and p-galactosidase. After 16 h, the medium is exchanged to DME medium supplemented with 10% delipidated fetal calf serum and the test compound at the appropriate concentration. After an additional 24 h, cell extracts are prepared and assayed for alkaline phosphatase and pgalactosidase activity. Alkaline phosphatase activity was corrected for transfection efficiency using the p-galactosidase activity as an internal standard (see, for example, Kliewer, S. A., et. al. Cell 1995, 83, 813-819. Rosiglitazone is used as a positive control in the hPPARγ assay. The positive control in the hPPAR-alpha and hPPAR-delta assays was 2-[4-(2-(3-(4-fluorophenyl)-1heptylureido)ethyl)-phenoxy]-2-methylpropionic acid, which can be prepared as described in Brown, Peter J., et. al. Synthesis (7), 778-782 (1997), or patent publication WO 9736579.
(§2) Compounds of Examples 1-41 were assayed to measure their biological activity with respect to their EC50 values and efficacy for modulating PPAR-alpha, PPAR-gamma, and PPAR-delta as set forth in Table 2.

In assay [2] the target is T2, PPARγ (Homo sapiens, UniProt P37231).
T2 construct: expressed in transfected cells; host or cells: CV-1 cells
T2 sequence (P37231 238-503 limits assumed): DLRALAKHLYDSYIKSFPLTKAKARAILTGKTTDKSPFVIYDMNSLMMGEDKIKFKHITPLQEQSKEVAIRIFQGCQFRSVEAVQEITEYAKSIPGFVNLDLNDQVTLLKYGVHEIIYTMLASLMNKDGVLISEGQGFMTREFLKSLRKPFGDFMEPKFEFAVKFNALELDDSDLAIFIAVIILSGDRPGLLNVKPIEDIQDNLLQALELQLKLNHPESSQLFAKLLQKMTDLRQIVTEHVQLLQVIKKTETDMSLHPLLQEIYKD
Briefly: PPAR-gamma EC50, functional cell (transactivation) assay.
Source text: as §1, §2

Assay [3] deals with T3, PPARδ (Homo sapiens, UniProt Q03181).
T3 construct: expressed in transfected cells; host or cells: CV-1 cells
T3 sequence (Q03181 211-439 limits assumed): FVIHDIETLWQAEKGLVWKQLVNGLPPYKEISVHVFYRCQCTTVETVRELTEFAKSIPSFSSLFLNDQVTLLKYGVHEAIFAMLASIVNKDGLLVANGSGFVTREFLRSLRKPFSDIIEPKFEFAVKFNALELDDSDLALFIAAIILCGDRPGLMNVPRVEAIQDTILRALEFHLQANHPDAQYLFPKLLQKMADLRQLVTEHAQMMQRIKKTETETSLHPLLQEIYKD
Briefly: PPAR-delta EC50, functional cell (transactivation) assay.
Source text: as §1, §2

Broadly, the EC50 is the concentration needed to bring the measured effect to its halfway point. High values mean a need for much substance, low ones an effect from little substance. Turning to `Cc1cc(S(=O)(=O)N2CCN(C(c3ccc(F)cc3)c3ccc(F)cc3)CC2)ccc1OC(C)(C)C(=O)O`, the EC50 in assay [1], in assay [2] and in assay [3] was 1 to 100 µM each time.

As to `Cc1cc(S(=O)(=O)N2CCN(c3ccccc3F)CC2)ccc1OC(C)(C)C(=O)O`, the EC50 in assay [1] was over 100 µM; in assay [2], 1 to 100 µM; in assay [3], under 1 µM.

Consider `Cc1cc(S(=O)(=O)N2CCN(c3ccccc3C#N)CC2)ccc1OC(C)(C)C(=O)O`, for which the EC50 was over 100 µM in assay [1], 1 to 100 µM in assay [2] and 1 to 100 µM in assay [3].

`Cc1cc(S(=O)(=O)N2CCN(CCc3ccccc3)CC2)ccc1OC(C)(C)C(=O)O`: the EC50 in assay [1] was over 100 µM; in assay [2] it was over 100 µM; in assay [3], 1 to 100 µM.

Consider `Cc1cc(S(=O)(=O)N2CCN(c3cccc(Cl)c3)CC2)ccc1OC(C)(C)C(=O)O`, for which the EC50 was over 100 µM in assay [1], 1 to 100 µM in assay [2] and 1 to 100 µM in assay [3].

`Cc1ccc(N2CCN(S(=O)(=O)c3ccc(OC(C)(C)C(=O)O)cc3)CC2)c(C)c1`: the EC50 is 1 to 100 µM in assay [1], over 100 µM in assay [2] and 1 to 100 µM in assay [3].

On to `CCc1cnc(N2CCN(S(=O)(=O)c3ccc(OC(C)(C)C(=O)O)cc3)CC2)nc1`, for which the EC50 in assay [1], in assay [2] and in assay [3] was 1 to 100 µM in each case.

Turning to `Cc1cc(S(=O)(=O)N2CCN(c3ccccc3)CC2)ccc1OC(C)(C)C(=O)O`, the EC50 in assay [1] is over 100 µM; in assay [2], 1 to 100 µM; in assay [3] it was 1 to 100 µM.

Consider `CC(C)(Oc1ccc(S(=O)(=O)N2CCN(c3ccc(Cl)c(Cl)c3)CC2)cc1)C(=O)O`, for which the EC50 in assay [1], in assay [2] and in assay [3] was 1 to 100 µM each time.

As to `Cc1cc(S(=O)(=O)N2CCN(c3ccc(C(C)(C)C)cc3)CC2)ccc1OC(C)(C)C(=O)O`, the figures for the EC50 in assay [1], in assay [2] and in assay [3] were over 100 µM, 1 to 100 µM and 1 to 100 µM, respectively.

Turning to `Cc1cccc(N2CCN(S(=O)(=O)c3ccc(OC(C)(C)C(=O)O)c(C)c3)CC2C)c1` (stereo not drawn), the EC50 in assay [1] was over 100 µM; in assay [2] it was 1 to 100 µM; in assay [3], under 1 µM.

`Cc1ccc(N2CCN(S(=O)(=O)c3ccc(OC(C)(C)C(=O)O)c(C)c3)CC2C)cc1C` (stereo not drawn): the values for the EC50 in assay [1], in assay [2] and in assay [3] were over 100 µM, over 100 µM and 1 to 100 µM, respectively.

For `Cc1cc(S(=O)(=O)N2CCN(c3ccc(Cl)c(Cl)c3)CC2)ccc1OC(C)(C)C(=O)O`, the EC50 in assay [1] was 1 to 100 µM; in assay [2], 1 to 100 µM; in assay [3] it was under 1 µM.

Turning to `Cc1cc(S(=O)(=O)N2CCN(c3ccc(F)cc3)CC2)ccc1OC(C)(C)C(=O)O`, the EC50 was over 100 µM in assay [1], 1 to 100 µM in assay [2] and under 1 µM in assay [3].

With `Cc1cc(S(=O)(=O)N2CCN(C(c3ccccc3)c3ccc(Cl)cc3)CC2)ccc1OC(C)(C)C(=O)O` (stereo not drawn) [drawing 127], the EC50 in assay [1], in assay [2] and in assay [3] was 1 to 100 µM each time.

On to `CCOc1ccccc1N1CCN(S(=O)(=O)c2ccc(OC(C)(C)C(=O)O)c(C)c2)CC1`, for which the EC50 in assay [1], in assay [2] and in assay [3] was 1 to 100 µM each time.

As for `Cc1cc(S(=O)(=O)N2CCN(C(c3ccccc3)c3ccccc3)CC2)ccc1OC(C)(C)C(=O)O`, the figures for the EC50 in assay [1], in assay [2] and in assay [3] were over 100 µM, 1 to 100 µM and 1 to 100 µM, respectively.

Turning to `Cc1cc(S(=O)(=O)N2CCN(c3ccc(C#N)cc3)CC2)ccc1OC(C)(C)C(=O)O`, the EC50 in assay [1] was over 100 µM; in assay [2], over 100 µM; in assay [3] it was 1 to 100 µM.

As for `CC(C)(Oc1ccc(S(=O)(=O)N2CCN(c3ccc(F)cc3)CC2)cc1)C(=O)O`, the results for the EC50 in assay [1], in assay [2] and in assay [3] were over 100 µM, over 100 µM and 1 to 100 µM, respectively.

For `Cc1cc(S(=O)(=O)N2CCN(C(=O)c3ccco3)CC2)ccc1OC(C)(C)C(=O)O`, the EC50 is over 100 µM in assay [1], over 100 µM in assay [2] and 1 to 100 µM in assay [3].

Take `Cc1cc(S(=O)(=O)N2CCN(c3cc(Cl)ccc3C)C(C)C2)ccc1OC(C)(C)C(=O)O` (stereo not drawn): the EC50 in assay [1] was over 100 µM; in assay [2], over 100 µM; in assay [3], 1 to 100 µM.

Take `Cc1cc(S(=O)(=O)N2CCN(C3CCCCC3)CC2)ccc1OC(C)(C)C(=O)O`: the EC50 is over 100 µM in assay [1], over 100 µM in assay [2] and 1 to 100 µM in assay [3].

Consider `CC(C)(Oc1ccc(S(=O)(=O)N2CCN(c3cccc(C(F)(F)F)c3)CC2)cc1)C(=O)O`, for which the EC50 is over 100 µM in assay [1], 1 to 100 µM in assay [2] and 1 to 100 µM in assay [3].

Turning to `Cc1cc(S(=O)(=O)N2CCN(c3ccc(Cl)cc3)CC2)ccc1OC(C)(C)C(=O)O`, the results for the EC50 in assay [1], in assay [2] and in assay [3] were over 100 µM, 1 to 100 µM and under 1 µM, respectively.

In the case of `Cc1cccc(N2CCN(S(=O)(=O)c3ccc(OC(C)(C)C(=O)O)cc3)CC2C)c1` (stereo not drawn), the EC50 is over 100 µM in assay [1], over 100 µM in assay [2] and 1 to 100 µM in assay [3].

For the compound `Cc1ccc(N2CCN(S(=O)(=O)c3ccc(OC(C)(C)C(=O)O)c(C)c3)CC2)c(C)c1`, the EC50 in assay [1] was over 100 µM; in assay [2], 1 to 100 µM; in assay [3], 1 to 100 µM.

Take `COc1ccc(N2CCN(S(=O)(=O)c3ccc(OC(C)(C)C(=O)O)c(C)c3)CC2)cc1OC`: the EC50 in assay [1], in assay [2] and in assay [3] was 1 to 100 µM each time.

For `Cc1cc(S(=O)(=O)N2CCN(C/C=C/c3ccccc3)CC2)ccc1OC(C)(C)C(=O)O`, the values for the EC50 in assay [1], in assay [2] and in assay [3] were over 100 µM, 1 to 100 µM and 1 to 100 µM, respectively.

For `Cc1cc(S(=O)(=O)N2CCN(C(c3ccccc3)c3ccc(Cl)cc3)CC2)ccc1OC(C)(C)C(=O)O` (stereo not drawn) [drawing 116], the EC50 in assay [1], in assay [2] and in assay [3] was 1 to 100 µM throughout.

As for `Cc1cc(S(=O)(=O)N2CCN(c3ccc(C(F)(F)F)cc3[N+](=O)[O-])CC2)ccc1OC(C)(C)C(=O)O`, the values for the EC50 in assay [1], in assay [2] and in assay [3] were over 100 µM, 1 to 100 µM and 1 to 100 µM, respectively.

Consider `Cc1cc(S(=O)(=O)N2CCN(c3ccccc3Cl)CC2)ccc1OC(C)(C)C(=O)O`, for which the EC50 in assay [1] was over 100 µM; in assay [2], 1 to 100 µM; in assay [3] it was 1 to 100 µM.

In the case of `Cc1cc(S(=O)(=O)N2CCN(CC3CCCCC3)CC2)ccc1OC(C)(C)C(=O)O`, the EC50 in assay [1] is over 100 µM; in assay [2], 1 to 100 µM; in assay [3], 1 to 100 µM.

`CC(C)(Oc1ccc(S(=O)(=O)N2CCN(c3ccccc3F)CC2)cc1)C(=O)O`: the EC50 in assay [1] is over 100 µM; in assay [2], over 100 µM; in assay [3], 1 to 100 µM.

Take `Cc1cc(S(=O)(=O)N2CCN(c3cccc(Br)c3)CC2)ccc1OC(C)(C)C(=O)O`: the EC50 is over 100 µM in assay [1], 1 to 100 µM in assay [2] and under 1 µM in assay [3].

As to `Cc1cc(S(=O)(=O)N2CCN(c3ccc([N+](=O)[O-])cc3)CC2)ccc1OC(C)(C)C(=O)O`, the results for the EC50 in assay [1], in assay [2] and in assay [3] were over 100 µM, 1 to 100 µM and 1 to 100 µM, respectively.

Consider `COc1ccccc1N1CCN(S(=O)(=O)c2ccc(OC(C)(C)C(=O)O)c(C)c2)CC1`, for which the EC50 in assay [1] is over 100 µM; in assay [2], 1 to 100 µM; in assay [3], 1 to 100 µM.
